Molecules are shown by their SMILES. Converted amounts (≈) assume the structure as drawn.

For series [1], the system named is bacterial reference strains. Nature of the series: Broth microdilution MIC, direct activity. The series is classed as cell-based. As for the experimental part: (§1) The minimum inhibitory concentration (MIC) and minimum bactericidal concentration (MBC) of the compounds were determined in triplicate using Mueller–Hinton broth and a bacterial inoculum of 5 × 10^5 CFU/mL, as recommended by the CLSI [26]. The minimum antibacterial concentration (MAC) of the compounds was determined in the presence of a fixed and subinhibitory concentration of colistin (as mentioned above).
A general note: Dilution methods test growth across graded concentrations, often in twofold steps.

The test system of series [2] is eight reference strains, Gram-positive and Gram-negative. The series is described as follows: Agar diffusion test, direct antibacterial activity. The format is cell-based. The note with it: for direct-acting antibacterial activity (agar diffusion): eight reference strains; for growth inhibition zone diameter: agar diffusion, on Gram-positive organisms. How it is done: Compounds 3–40, 42, 44–47, and 49 (Scheme 1, Scheme 2, Scheme 3, Scheme 4 and Scheme 5) were subjected to a detailed investigation of their direct and synergistic antibacterial activity and potential cytotoxicity by using several methods. The direct antibacterial activity of these compounds was determined using both agar diffusion and broth microdilution methods. The former was initially used to identify potentially active compounds and was tested on eight reference strains, with representatives of both Gram-positive and Gram-negative clinically relevant bacterial species or genera (Figure 4).
The compounds were provided as powders and dissolved in 100% DMSO at a final concentration of 50 mg/mL. When a compound was not soluble, DMSO was further added to lower the concentration to 25 mg/mL or, when necessary, 12.5 or 6.25 mg/mL, until the compound was completely solubilized. The primary screen used in the evaluation of the direct antibacterial activity through an agar diffusion test was implemented on a 8-channel, automated liquid-handling platform (PerkinElmer Janus Integrator, Waltham, Mass.), which was located under a custom-made class 1000 laminar flow cabinet (Faster, Cornaredo, Italy). Briefly, 1-well plates (Thermo Fisher Scientific, Waltham, Mass.), previously filled with Mueller–Hinton Agar medium, were inoculated with a suspension of the bacterium in a sterile 0.9% NaCl solution containing 1.5 × 10^8 CFU/mL, using a sterile swab. Indicator organisms included 4 Gram-positive (Bacillus subtilis ATCC 6633, Enterococcus faecalis ATCC 29212, Staphylococcus epidermidis ATCC 14990, and Streptococcus pyogenes ATCC 12344) and 4 Gram-negative (Escherichia coli CCUG^T, Klebsiella pneumoniae ATCC 13833, Pseudomonas aeruginosa ATCC 27853, and Acinetobacter baumannii ATCC 17978) strains, which were routinely propagated using Mueller–Hinton Agar plates. In total, 2 μL of each solution of compounds was dispensed on the plate surface (corresponding to 100, 50, 25, or 12.5 μg of compound according to its solubility). The controls included the solvent (100% DMSO), kanamycin, piperacillin, ceftazidime, vancomycin, and teicoplanin. The results were recorded as the diameter of the growth inhibition zone. The inhibition zones of the controls (max variation from expected diameter, ± 1 mm) were used as the validation criteria. The assays were performed at least in duplicate, and the position in which a single compound was spotted on the plate was randomly modified in any successive experiment.
Background: In agar diffusion tests the substance spreads into inoculated agar from a disc or well.

The subject of series [3] is Acinetobacter baumannii ATCC 17978. The series is described as follows: MAC determination in the presence of subinhibitory colistin. The series is classed as cell-based. On the set-up: key to MAC Aba: -: No synergistic activity. The note with it: for MAC Aba: in the presence of 0.5 × MIC colistin; for MIC/MAC Ratio Aba: minimal ratio of MIC of compound alone to MAC with 0.5 × MIC colistin. How it is done: as §1

For series [4], the system named is Klebsiella pneumoniae ATCC 13833. Described as above. On the set-up: key to MAC Kpn: -: No synergistic activity. The series is classed as cell-based. The note with it: for MAC Kpn: in the presence of 0.5 × MIC colistin; for MIC/MAC Ratio Kpn: minimal ratio of MIC of compound alone to MAC with 0.5 × MIC colistin. How it is done:
as §1

The test system of another series is Escherichia coli CCUG^T. Described as above. The series is classed as cell-based. On the set-up: key to MAC Eco: -: No synergistic activity. The note with it: for MAC Eco: in the presence of 0.5 × MIC colistin; for MIC/MAC Ratio Eco: minimal ratio of MIC of compound alone to MAC with 0.5 × MIC colistin. How it is done:
as §1

The test system of another series is Bacillus subtilis. Nature of the series: Broth microdilution MIC. The series is classed as cell-based. The note with it: compound alone. As for the experimental part: as §1
For another series, the system named is Streptococcus pyogenes. The series is described as follows: Broth microdilution MIC. The series is classed as cell-based. The note with it: compound alone. How it is done:
as §1

Another series relates to Enterococcus faecalis. The series is described as follows: Broth microdilution MIC. The note with it: compound alone. The series is classed as cell-based. As for the experimental part: as §1
The test system of another series is Staphylococcus aureus. The series is described as follows: Broth microdilution MIC. The series is classed as cell-based. The note with it: compound alone. As for the experimental part:
as §1

Take `O=C(O)CNC(=O)c1cnn(-c2ccccc2)c1-n1cccc1` [Compound 15, [[[1-Phenyl-5-(1H-pyrrol-1-yl)-1H-pyrazol-4-yl]carbonyl]amino]acetic Acid]: the melting point – broadly, the temperature, or range, at which the solid turns liquid – was 191 to 194 °C. Besides, the MIC (usually the lowest concentration found to suppress growth) in series [1] was not below 512 mg/L. Also, in [2], the “direct-acting antibacterial activity (agar diffusion)” value (“direct-acting antibacterial activity” below) is recorded as “broad-spectrum, though moderate, direct-acting antibacterial activity”.
With `C[C@H](NC(=O)c1cnn(-c2ccccc2)c1-n1cccc1)C(=O)O` [Compound 16, (S)-2-[[[1-Phenyl-5-(1H-pyrrol-1-yl)-1H-pyrazol-4-yl]carbonyl]amino]propanoic Acid], the melting point was 142 to 145 °C. In [1], this molecule displayed a minimum inhibitory concentration (MIC) not below 512 mg/L. In addition, in series [2], the “direct-acting antibacterial activity” value is listed as “broad-spectrum, though moderate, direct-acting antibacterial activity”.
For `CC(C)[C@H](NC(=O)c1cnn(-c2ccccc2)c1-n1cccc1)C(=O)O` [Compound 17, (S)-3-Methyl-2-[[[1-phenyl-5-(1H-pyrrol-1-yl)-1H-pyrazol-4-yl]carbonyl]amino]butanoic Acid], the melting point was 150 to 152 °C. Also, in series [1], the MIC is not below 512 mg/L. The “direct-acting antibacterial activity” value in series [2] is reported as “broad-spectrum, though moderate, direct-acting antibacterial activity”.
`C[C@H](NC(=O)CNC(=O)c1cnn(-c2ccccc2)c1-n1cccc1)C(=O)O` [Compound 19, N-[N-[[1-Phenyl-5-(1H-pyrrol-1-yl)-1H-pyrazol-4-yl]carbonyl]glycyl]-L-alanine] registered a melting point of 80 to 84 °C. In addition, the minimum inhibitory concentration (MIC) in [1] was not below 512 mg/L. The “direct-acting antibacterial activity” value in series [2] is “broad-spectrum, though moderate, direct-acting antibacterial activity”.
In turn, `Cc1c(C(=O)NC23CC4CC(CC(O)(C4)C2)C3)nn(-c2ccccc2)c1-n1cccc1` [Compound 27, N-(Adamantan-3-ol-1-yl)-4-methyl-1-phenyl-5-(1H-pyrrol-1-yl)-1H-pyrazole-3-carboxamide] had a melting point of 137 to 138 °C. For the same molecule, the “MAC Aba” value in [3] was “-”. In addition, in [4], the “MAC Kpn” value is reported as 32 µg/mL and the “MIC/MAC Ratio Kpn” value turned out to be 16. Moreover, in the series with Escherichia coli CCUG^T, the “MAC Eco” value was determined as 32 µg/mL and the “MIC/MAC Ratio Eco” value is recorded as 16.
For the molecule `Cc1c(C(=O)N2CCN(C)CC2)nn(-c2ccc(Cl)cc2)c1-n1cccc1` [Compound 28, [1-(4-Chlorophenyl)-4-methyl-5-(1H-pyrrol-1-yl)-1H-pyrazol-3-yl](4-methylpiperazin-1-yl)methanone], the melting point was 178 to 182 °C. In series [3], the “MAC Aba” value worked out at 64 µg/mL and the “MIC/MAC Ratio Aba” value was determined as 8. Further, in [4], the “MAC Kpn” value stood at 64 µg/mL and the “MIC/MAC Ratio Kpn” value was determined as 8. In addition, in the series with Escherichia coli CCUG^T, the “MAC Eco” value is 64 µg/mL and the “MIC/MAC Ratio Eco” value came out at 8.
`Cc1c(C(=O)N[C@@H](Cc2ccccc2)C(=O)OC(C)(C)C)nn(-c2c(Cl)cc(Cl)cc2Cl)c1-n1c(C)ccc1C` [Compound 39, tert-Butyl (S)-3-Phenyl-2-[[[4-methyl-1-(2,4,6-trichlorophenyl)-5-(2,5-dimethyl-1H-pyrrol-1-yl)-1H-pyrazol-3-yl]carbonyl]amino]propanoate] showed a melting point of 72 to 81 °C. For the same molecule, in series [3], the “MAC Aba” value was 32 µg/mL and the “MIC/MAC Ratio Aba” value is 16. The “MAC Kpn” value in series [4] is reported as “-”. Also, in the series on Escherichia coli CCUG^T, the “MAC Eco” value is “-”.
In turn, `Cc1c(C(=O)Nc2ccc(C(=O)O)cc2)nn(-c2ccc(Cl)cc2)c1-n1cccc1` [Compound 40, 4-[[[1-(4-Chlorophenyl)-4-methyl-5-(1H-pyrrol-1-yl)-1H-pyrazol-3-yl]carbonyl]amino]benzoic Acid] came in with a melting point of more than 250 °C. Moreover, the “growth inhibition zone diameter” value in series [2] is reported as “up to 18 mm”. In the series with Bacillus subtilis, this molecule showed a minimal inhibitory concentration (MIC) of 32 mg/L (≈ 76 µM). In addition, inhibition of growth against Streptococcus pyogenes (MIC) required 16 mg/L (≈ 38 µM). Moreover, the lowest concentration to inhibit growth against Enterococcus faecalis (MIC) was 32 mg/L (≈ 76 µM). In the series with Staphylococcus aureus, this molecule came in with an MIC of 32 mg/L (≈ 76 µM).
`Cc1c(C(=O)Nc2cccc(C(=O)O)c2)nn(-c2ccc(Cl)cc2)c1-n1cccc1` [Compound 42, 3-[[[1-(4-Chlorophenyl)-4-methyl-5-(1H-pyrrol-1-yl)-1H-pyrazol-3-yl]carbonyl]amino]benzoic Acid] yielded a melting point of 248 to 250 °C. Further, the minimal inhibitory concentration (MIC) in [1] is not below 512 mg/L. In series [2], the “growth inhibition zone diameter” value is on record as “up to 18 mm” and the “direct-acting antibacterial activity” value is recorded as “broad-spectrum, though moderate, direct-acting antibacterial activity”. For the same molecule, in the series on Bacillus subtilis, the MIC was determined as 32 mg/L (≈ 76 µM). Inhibition of growth against Streptococcus pyogenes (MIC) required 16 mg/L (≈ 38 µM). Besides, in the series with Enterococcus faecalis, the minimum inhibitory concentration (MIC) was found to be 32 mg/L (≈ 76 µM). Besides, 32 mg/L (≈ 76 µM) was the least that counted as inhibitory in the series with Staphylococcus aureus (MIC).
For the molecule `Cc1c(C(=O)Nc2ccccc2C(=O)O)nn(-c2ccc(Cl)cc2)c1-n1cccc1` [Compound 44, 2-[[[1-(4-Chlorophenyl)-4-methyl-5-(1H-pyrrol-1-yl)-1H-pyrazol-3-yl]carbonyl]amino]benzoic Acid], the melting point lay within 270 to 272 °C. Also, in series [2], the “growth inhibition zone diameter” value is recorded as “up to 18 mm”. This molecule gave a minimum inhibitory concentration (MIC) against Bacillus subtilis of 32 mg/L (≈ 76 µM). Moreover, the MIC with Streptococcus pyogenes was found to be 16 mg/L (≈ 38 µM). Besides, the MIC against Enterococcus faecalis was 32 mg/L (≈ 76 µM). Further, in the series on Staphylococcus aureus, the MIC was determined as 32 mg/L (≈ 76 µM).
The molecule `CCOC(=O)NS(=O)(=O)c1ccc(NC(=O)c2nn(-c3ccc(Cl)cc3)c(-n3cccc3)c2C)cc1` [Compound 47, Ethyl [[4-[1-(4-Chlorophenyl)-4-methyl-5-(1H-pyrrol-1-yl)-1H-pyrazole-3-carboxamido]phenyl]sulfonyl]carbamate] returned a melting point of 188 to 190 °C. For the same molecule, the “growth inhibition zone diameter” value in series [2] is listed as “up to 18 mm”. This molecule also displayed an MIC against Bacillus subtilis of 32 mg/L (≈ 60.6 µM). The molecule further gave a minimal inhibitory concentration (MIC) in the series with Streptococcus pyogenes of 16 mg/L (≈ 30.3 µM). The minimal inhibitory concentration (MIC) in the series with Enterococcus faecalis was found to be 32 mg/L (≈ 60.6 µM). In the series on Staphylococcus aureus, this molecule displayed a minimum inhibitory concentration (MIC) of 32 mg/L (≈ 60.6 µM).

Values taken from paper PMC9774939, “Optimization of Pyrazole Compounds as Antibiotic Adjuvants Active against Colistin- and Carbapenem-Resistant Acinetobacter baumannii” (Antibiotics, 2022).
